Where two headings read alike, the source gives them in different places. Blank lines part the entries; values can stand above or below the compound they belong to.
Legend:
Test in all cases: Secondary dose-response HTS, Cell Titer Glo; call rule not given here
Type in all cases: cell-based, human
MV4-11 = details: MV4-11; for EC50: Homo sapiens
CHRF288-11 = details: for EC50: Homo sapiens
CMK = details: CMK; for average effective concentration, CMK: secondary high-throughput screen; for EC50: Homo sapiens
CMS = details: for average effective concentration, CMS: secondary high-throughput screen; for EC50: Homo sapiens, HTS
M07e = details: for EC50: Homo sapiens, M-07e
ML2 = details: ML-2
U937 = details: for EC50: Homo sapiens, U-937
[1] = secondary high-throughput screen
[2] = secondary high-throughput screen, CHRF288-11
[3] = secondary high-throughput screen, U937
[4] = secondary high-throughput screen, M07e

SMILES: C=C1C(=O)O[C@@H](CCC)[C@@H]1C(=O)O (racemic) [BUTYROLACTONE 3]
- average effective concentration, MV4-11 (MV4-11; [1]): Inactive
- average effective concentration, CHRF288-11 (CHRF288-11; [2]): Inactive
- average effective concentration, CMK (CMK): Inactive
- average effective concentration, CMS (CMS): Inactive
- average effective concentration, M07e (M07e; secondary high-throughput screen, […]): Inactive
- average effective concentration, ML-2 (ML2; [1]): Inactive
- average effective concentration, U937 (U937; [3]): Inactive

SMILES: Cc1noc(-c2ccc(-c3ccc(CC(=O)O)cc3)cc2)c1NC(=O)O[C@H](C)c1ccccc1Cl [AM-966]
- average effective concentration, MV4-11 (MV4-11; [1]): Inactive
- average effective concentration, CHRF288-11 (CHRF288-11; [2]): Inactive
- average effective concentration, CMK (CMK): Inactive
- average effective concentration, CMS (CMS): Inactive
- average effective concentration, M07e (M07e; [4]): Inactive
- average effective concentration, ML-2 (ML2; [1]): Inactive
- average effective concentration, U937 (U937; [3]): Inactive

SMILES: CC(C)Oc1ccc(-c2cnc3c(-c4ccnc5ccccc45)cnn3c2)cc1 [DMH-1]
- average effective concentration, MV4-11 (MV4-11; [1]): Inactive
- average effective concentration, CHRF288-11 (CHRF288-11; [2]): Inactive
- average effective concentration, CMK (CMK): Inactive
- average effective concentration, CMS (CMS): Inactive
- average effective concentration, M07e (M07e; [4]): Inactive
- average effective concentration, ML-2 (ML2; [1]): Inactive
- average effective concentration, U937 (U937; [3]): Inactive

SMILES: O=C1NCCc2c(OCCCCN3CCCCC3)cccc21 [DPQ]
- average effective concentration, MV4-11 (MV4-11; [1]): Inactive
- average effective concentration, CHRF288-11 (CHRF288-11; [2]): Inactive
- average effective concentration, CMK (CMK): Inactive
- average effective concentration, CMS (CMS): Inactive
- average effective concentration, M07e (M07e; [4]): Inactive
- average effective concentration, ML-2 (ML2; [1]): Inactive
- average effective concentration, U937 (U937; [3]): Inactive

SMILES: COC(=O)[C@H](CC(C)C)NC(=O)c1ccc(NCc2cnc[nH]2)cc1-c1cccc2ccccc12 [GGTI-2147]
- average effective concentration, MV4-11 (MV4-11; [1]): Inactive
- average effective concentration, CHRF288-11 (CHRF288-11; [2]): Inactive
- average effective concentration, CMK (CMK): Inactive
- average effective concentration, CMS (CMS): Inactive
- average effective concentration, M07e (M07e; [4]): Inactive
- average effective concentration, ML-2 (ML2; [1]): Inactive
- average effective concentration, U937 (U937; [3]): Inactive

SMILES: O=C(CCCCCCSc1ccc2ccccc2c1)NO [HNHA]
- average effective concentration, MV4-11 (MV4-11; [1]): Inactive
- average effective concentration, CMK (CMK): Inactive
- average effective concentration, CMS (CMS): Inactive
- average effective concentration, M07e (M07e; [4]): Inactive
- EC50 (ML2; secondary high-throughput screen, read-out: average effective concentration, ML-2): 8500 nM
- average effective concentration, U937 (U937; [3]): Inactive

- EC50 (MV4-11; secondary HTS, 72 h, average of triplicate, read-out: EC50 MV4-11): 50 nM
- EC50 (MV4-11; secondary high-throughput screen, read-out: average effective concentration, MV4-11): 50 nM
- EC50 (U937; secondary HTS, 72 h, average of triplicate, read-out: EC50 U937): 80 nM
- EC50 (U937; secondary high-throughput screen, U937, read-out: average effective concentration, U937): 80 nM
SMILES: COc1ccc(-c2ccc3ncc4c(c3c2)n(-c2ccc(N3CCNCC3)c(C(F)(F)F)c2)c(=O)n4C)cn1 [NVP-BGT226, reference compound]
- EC50 (CHRF288-11; HTS, secondary high-throughput screen, CHRF288-11, read-out: average effective concentration, CHRF288-11): 55 nM
- EC50 (CHRF288-11; secondary HTS, 72 h, average of triplicate, read-out: EC50 CHRF288-11): 50 nM
- EC50 (CMK; 72 h, read-out: EC50 CMK): 60 nM
- EC50 (CMK; read-out: average effective concentration, CMK): 63 nM
- EC50 (CMS; 72 h, read-out: EC50 CMS): 10 nM
- EC50 (CMS; read-out: average effective concentration, CMS): 14 nM
- EC50 (M07e; secondary HTS, 72 h, average of triplicate, read-out: EC50 M07e): 250 nM
- EC50 (M07e; secondary high-throughput screen, M07e, read-out: average effective concentration, M07e): 250 nM
- EC50 (ML2; Homo sapiens, secondary HTS, 72 h, average of triplicate, read-out: EC50 ML2): 230 nM
- EC50 (ML2; Homo sapiens, secondary high-throughput screen, read-out: average effective concentration, ML-2): 230 nM

SMILES: NC(=O)c1cccc2ncc(-c3ccc(Cl)cc3)nc12 [PARP INHIBITOR XII]
- average effective concentration, MV4-11 (MV4-11; [1]): Inactive
- average effective concentration, CHRF288-11 (CHRF288-11; [2]): Inactive
- average effective concentration, CMK (CMK): Inactive
- average effective concentration, CMS (CMS): Inactive
- average effective concentration, M07e (M07e; [4]): Inactive
- average effective concentration, ML-2 (ML2; [1]): Inactive
- average effective concentration, U937 (U937; [3]): Inactive

SMILES: O=C(CCN1CCN(C(=O)OCc2cc(Cl)cc(Cl)c2)CC1)c1ccc2[nH]c(=O)oc2c1 [PF-8380]
- average effective concentration, MV4-11 (MV4-11; [1]): Inactive
- average effective concentration, CHRF288-11 (CHRF288-11; [2]): Inactive
- average effective concentration, CMK (CMK): Inactive
- average effective concentration, CMS (CMS): Inactive
- average effective concentration, M07e (M07e; [4]): Inactive
- average effective concentration, ML-2 (ML2; [1]): Inactive
- average effective concentration, U937 (U937; [3]): Inactive

SMILES: CN(C)CC(=O)Nc1ccc2[nH]c(=O)c3ccccc3c2c1 [PJ34]
- average effective concentration, MV4-11 (MV4-11; [1]): Inactive
- average effective concentration, CHRF288-11 (CHRF288-11; [2]): Inactive
- average effective concentration, CMK (CMK): Inactive
- average effective concentration, CMS (CMS): Inactive
- average effective concentration, M07e (M07e; [4]): Inactive
- average effective concentration, ML-2 (ML2; [1]): Inactive
- average effective concentration, U937 (U937; [3]): Inactive

Source: publication PMC6522510 (Nature Communications, 2019)
